Test results published in ChEMBL document CHEMBL1201862, “PubChem BioAssay data set” (2004).
Active and inactive are the calls of the source.

What was measured:
[1] = target: T1, Sentrin-specific protease 8 (Homo sapiens, UniProt Q96LD8); experiment: SENP8 protease inhibitors, SAR follow-up, biochemical, luminescence (AID 504501); type: functional
T1 sequence (Q96LD8 whole entry): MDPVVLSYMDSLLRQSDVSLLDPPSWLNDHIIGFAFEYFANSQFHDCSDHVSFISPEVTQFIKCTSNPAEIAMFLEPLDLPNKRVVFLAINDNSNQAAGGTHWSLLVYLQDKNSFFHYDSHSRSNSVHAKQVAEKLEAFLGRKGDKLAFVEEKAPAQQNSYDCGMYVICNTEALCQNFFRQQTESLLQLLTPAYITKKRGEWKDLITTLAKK

[2] = target: T2, Sentrin-specific protease 6 (Homo sapiens, UniProt Q9GZR1); experiment: SAR Analysis of small molecule inhibitors of Sentrin-specific protease 6 (SENP6) using a Luminescent assay. [Related pubchem assays (depositor defined):AID2582, AID2599]; type: functional
T2 sequence (Q9GZR1 whole entry): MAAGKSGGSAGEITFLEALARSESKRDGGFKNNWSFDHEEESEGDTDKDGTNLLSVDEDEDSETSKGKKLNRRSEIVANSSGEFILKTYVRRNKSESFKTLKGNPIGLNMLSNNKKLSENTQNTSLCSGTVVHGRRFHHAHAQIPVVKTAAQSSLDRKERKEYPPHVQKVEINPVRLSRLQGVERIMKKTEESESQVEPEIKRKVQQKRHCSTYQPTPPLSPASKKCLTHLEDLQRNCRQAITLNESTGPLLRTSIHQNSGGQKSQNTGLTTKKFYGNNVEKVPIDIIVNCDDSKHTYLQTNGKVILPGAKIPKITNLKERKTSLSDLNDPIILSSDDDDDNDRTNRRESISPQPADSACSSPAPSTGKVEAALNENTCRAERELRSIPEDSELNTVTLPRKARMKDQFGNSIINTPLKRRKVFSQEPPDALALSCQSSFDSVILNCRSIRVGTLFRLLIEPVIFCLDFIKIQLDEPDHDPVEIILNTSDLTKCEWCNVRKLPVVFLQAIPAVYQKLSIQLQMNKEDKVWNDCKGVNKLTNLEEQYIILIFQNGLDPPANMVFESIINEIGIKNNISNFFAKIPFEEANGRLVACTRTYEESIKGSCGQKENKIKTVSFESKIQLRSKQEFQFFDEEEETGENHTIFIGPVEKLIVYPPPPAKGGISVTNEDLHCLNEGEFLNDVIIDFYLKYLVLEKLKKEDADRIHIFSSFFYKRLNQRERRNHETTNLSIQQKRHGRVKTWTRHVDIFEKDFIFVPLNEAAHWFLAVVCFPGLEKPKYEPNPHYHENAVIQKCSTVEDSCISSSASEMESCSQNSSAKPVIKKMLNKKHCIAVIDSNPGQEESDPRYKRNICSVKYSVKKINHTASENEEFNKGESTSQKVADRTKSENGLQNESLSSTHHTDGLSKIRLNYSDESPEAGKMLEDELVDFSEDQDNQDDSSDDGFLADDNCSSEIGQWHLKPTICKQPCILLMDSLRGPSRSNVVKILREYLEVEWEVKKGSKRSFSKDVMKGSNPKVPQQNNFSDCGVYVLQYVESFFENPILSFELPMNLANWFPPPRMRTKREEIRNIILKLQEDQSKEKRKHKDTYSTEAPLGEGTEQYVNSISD

[3] = target: T3, Sentrin-specific protease 7 (Homo sapiens, UniProt Q9BQF6); experiment: SENP7 protease inhibitors, SAR follow-up, biochemical, luminescence (AID 504497); type: functional
T3 sequence (Q9BQF6 whole entry): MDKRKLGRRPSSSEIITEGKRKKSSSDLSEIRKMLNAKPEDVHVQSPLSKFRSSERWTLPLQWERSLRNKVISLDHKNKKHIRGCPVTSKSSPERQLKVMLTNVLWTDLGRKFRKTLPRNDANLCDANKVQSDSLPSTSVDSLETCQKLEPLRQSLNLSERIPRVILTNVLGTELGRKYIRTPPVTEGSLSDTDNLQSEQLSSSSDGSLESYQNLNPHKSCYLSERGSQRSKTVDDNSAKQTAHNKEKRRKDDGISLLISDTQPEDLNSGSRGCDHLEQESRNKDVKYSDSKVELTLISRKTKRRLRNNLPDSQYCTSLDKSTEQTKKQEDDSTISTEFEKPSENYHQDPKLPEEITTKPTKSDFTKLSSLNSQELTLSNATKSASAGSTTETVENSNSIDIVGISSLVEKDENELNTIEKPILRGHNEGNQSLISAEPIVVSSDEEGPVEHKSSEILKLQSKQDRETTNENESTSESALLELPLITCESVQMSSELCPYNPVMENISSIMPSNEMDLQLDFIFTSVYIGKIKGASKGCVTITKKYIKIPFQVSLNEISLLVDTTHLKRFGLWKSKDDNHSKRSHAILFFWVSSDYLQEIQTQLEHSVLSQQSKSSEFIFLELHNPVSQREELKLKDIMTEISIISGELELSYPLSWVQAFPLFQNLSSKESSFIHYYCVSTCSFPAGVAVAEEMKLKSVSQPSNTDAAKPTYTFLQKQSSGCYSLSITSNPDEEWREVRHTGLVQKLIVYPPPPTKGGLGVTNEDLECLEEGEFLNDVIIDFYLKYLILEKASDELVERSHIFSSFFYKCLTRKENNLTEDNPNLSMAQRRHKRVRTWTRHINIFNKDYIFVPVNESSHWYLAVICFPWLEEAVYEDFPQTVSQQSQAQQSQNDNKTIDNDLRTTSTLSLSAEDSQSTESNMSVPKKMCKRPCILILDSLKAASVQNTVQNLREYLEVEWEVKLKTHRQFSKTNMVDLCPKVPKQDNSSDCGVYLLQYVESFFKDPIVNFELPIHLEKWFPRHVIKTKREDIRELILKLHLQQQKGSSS

[4] = target: T4, Caspase-3 (Homo sapiens, UniProt P42574); experiment: SAR Analysis of small molecule inhibitors of Sentrin-specific proteases (SENPs) using a Caspase-3 Selectivity assay. [Related pubchem assays (depositor defined):AID2540, AID2599, AID434973, AID489001]; type: functional
T4 sequence (P42574 whole entry): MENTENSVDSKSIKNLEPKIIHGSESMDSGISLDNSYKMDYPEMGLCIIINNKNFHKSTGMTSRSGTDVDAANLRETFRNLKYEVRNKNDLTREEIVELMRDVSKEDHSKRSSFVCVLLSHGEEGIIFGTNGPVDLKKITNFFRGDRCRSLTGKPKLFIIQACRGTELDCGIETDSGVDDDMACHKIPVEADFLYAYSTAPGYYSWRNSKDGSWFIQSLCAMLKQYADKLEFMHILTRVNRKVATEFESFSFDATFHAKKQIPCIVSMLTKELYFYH

[5] = target: T4, Caspase-3; type: functional
[6] = target: T3, Sentrin-specific protease 7; type: functional
[7] = target: T1, Sentrin-specific protease 8; type: functional
[8] = target: T2, Sentrin-specific protease 6; type: functional
[9] = target: Cyclin-dependent kinase 5/CDK5 activator 1 (Homo sapiens, UniProt Q00535); experiment: CDK5/p35 kinase inhibitors, dose response, biochemical, cherry-picked samples, set 2 (AID 504545)
Chain of Cyclin-dependent kinase 5/CDK5 activator 1 (Q00535 whole entry): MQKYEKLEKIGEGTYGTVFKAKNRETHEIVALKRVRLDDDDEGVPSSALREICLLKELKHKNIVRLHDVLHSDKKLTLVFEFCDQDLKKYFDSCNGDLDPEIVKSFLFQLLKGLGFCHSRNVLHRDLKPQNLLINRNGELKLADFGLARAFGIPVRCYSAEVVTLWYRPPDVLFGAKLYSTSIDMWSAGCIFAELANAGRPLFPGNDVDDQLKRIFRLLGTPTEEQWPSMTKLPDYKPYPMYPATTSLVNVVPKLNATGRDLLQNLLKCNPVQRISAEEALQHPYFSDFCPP
Chain of Cyclin-dependent kinase 5/CDK5 activator 1 (Q15078 whole entry, further chain): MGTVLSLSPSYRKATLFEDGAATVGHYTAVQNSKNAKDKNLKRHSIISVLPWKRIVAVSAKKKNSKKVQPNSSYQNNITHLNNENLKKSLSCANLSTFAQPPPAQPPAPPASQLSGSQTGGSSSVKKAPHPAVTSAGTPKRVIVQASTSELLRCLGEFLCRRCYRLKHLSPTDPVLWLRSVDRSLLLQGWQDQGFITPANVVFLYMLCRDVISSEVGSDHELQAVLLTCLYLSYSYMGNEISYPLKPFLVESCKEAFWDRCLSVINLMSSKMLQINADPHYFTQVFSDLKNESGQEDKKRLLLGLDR

[10] = target: T5, Serine/threonine-protein phosphatase (Candida dubliniensis (strain CD36 / CBS 7987 / NCPF 3949 / NRRLY-17841) (Yeast), UniProt B9W6M3); experiment: calcineurin pathway inhibitors in yeast reporter, dose response, S. cerevisiae, CDRE-lacZ, luminescence, secondary (AID 2388); type: functional, cell-based;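 further: yeast reporter cells carrying a calcineurin-responsive lacZ construct stimulated with calcium chloride; luminescent beta-galactosidase reporter signal in whole cells rather than isolated phosphatase activity; potency for inhibition where a drop in reporter signal means calcineurin blockade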
T5 sequence (B9W6M3 whole entry): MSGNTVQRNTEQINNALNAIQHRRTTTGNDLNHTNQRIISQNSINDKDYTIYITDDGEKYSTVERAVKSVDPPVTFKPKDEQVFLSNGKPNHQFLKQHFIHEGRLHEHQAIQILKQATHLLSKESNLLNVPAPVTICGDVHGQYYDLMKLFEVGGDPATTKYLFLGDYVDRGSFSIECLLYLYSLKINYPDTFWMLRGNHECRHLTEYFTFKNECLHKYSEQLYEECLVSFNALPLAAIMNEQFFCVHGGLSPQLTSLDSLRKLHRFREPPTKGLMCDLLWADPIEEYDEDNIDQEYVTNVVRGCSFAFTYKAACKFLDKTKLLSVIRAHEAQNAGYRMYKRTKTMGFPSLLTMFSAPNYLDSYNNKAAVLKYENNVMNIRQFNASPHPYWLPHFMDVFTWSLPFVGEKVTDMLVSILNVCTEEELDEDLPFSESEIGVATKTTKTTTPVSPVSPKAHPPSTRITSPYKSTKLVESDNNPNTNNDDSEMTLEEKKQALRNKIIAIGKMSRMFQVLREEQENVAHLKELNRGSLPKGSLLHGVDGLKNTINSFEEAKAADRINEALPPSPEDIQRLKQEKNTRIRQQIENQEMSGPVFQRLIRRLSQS

[11] = NIH-3T3 fibroblast cytotoxicity, dose response, cytotoxicity control, cell-based, fluorescence, Alamar Blue, secondary assay (AID 2327); type: functional;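 further: NIH-3T3 mouse fibroblasts cultured with fluconazole at 8 µg/mL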
[12] = target: ATP-dependent molecular chaperone HSP82 (Candida albicans (strain WO-1) (Yeast), UniProt C4YTQ8); experiment: loss of DOC-induced GRE-beta-galactosidase reporter signal, dose response, Hsp90 inhibitor project, S. cerevisiae, luminescence (AID 2400); type: functional, cell-based;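 further: beta-galactosidase luminescence from glucocorticoid response element reporter as proxy for Hsp90 function; inhibitor potency where signal loss means Hsp90 inhibition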
Chain of ATP-dependent molecular chaperone HSP82 (C4YTQ8 whole entry): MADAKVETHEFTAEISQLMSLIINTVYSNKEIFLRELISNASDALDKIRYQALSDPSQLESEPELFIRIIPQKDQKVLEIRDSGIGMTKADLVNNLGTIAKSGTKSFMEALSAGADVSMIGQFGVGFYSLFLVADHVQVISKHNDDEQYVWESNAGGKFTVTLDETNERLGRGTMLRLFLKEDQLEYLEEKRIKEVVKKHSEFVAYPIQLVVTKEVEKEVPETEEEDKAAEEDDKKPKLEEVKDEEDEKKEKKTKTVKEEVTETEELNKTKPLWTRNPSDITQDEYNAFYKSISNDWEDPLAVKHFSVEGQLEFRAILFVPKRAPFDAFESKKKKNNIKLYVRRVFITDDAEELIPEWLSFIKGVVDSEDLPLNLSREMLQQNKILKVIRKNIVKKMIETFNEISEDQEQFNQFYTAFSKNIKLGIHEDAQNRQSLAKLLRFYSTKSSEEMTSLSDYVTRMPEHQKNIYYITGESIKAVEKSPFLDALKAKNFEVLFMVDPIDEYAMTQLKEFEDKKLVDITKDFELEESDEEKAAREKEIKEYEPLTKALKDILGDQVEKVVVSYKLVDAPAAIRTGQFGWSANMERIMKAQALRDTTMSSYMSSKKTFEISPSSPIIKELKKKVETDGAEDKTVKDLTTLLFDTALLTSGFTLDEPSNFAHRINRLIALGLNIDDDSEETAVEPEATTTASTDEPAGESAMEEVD

[13] = C. albicans growth with fluconazole, confirmation, fluorescence, retest (AID 2467); type: functional, cell-based
[14] = test system: HEK293; experiment: inhibitors of LMP1-driven NF-kB reporter, dose response, cell-based, HEK293, luciferase, cherry-pick (AID 588343); type: functional; settings: Homo sapiens
[15] = test system: Streptococcus; experiment: Group A Streptococcus viability loss, dose response, counter-screen for streptokinase expression inhibitor project, luminescence, BacTiterGlo (AID 1915); type: functional, organism-based;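 further: potency for reduction of bacterial viability or growth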
[16] = target: G-protein coupled receptor 55 (Homo sapiens, UniProt Q9Y2T6); experiment: GPR55 antagonists blocking LPI-driven arrestin recruitment, primary screen, imaging, U2OS, beta-arrestin-GFP, LPI agonist (AID 2013); type: functional;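 further: antagonist potency measured as reduced agonist-driven arrestin aggregation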
Chain of G-protein coupled receptor 55 (Q9Y2T6 whole entry): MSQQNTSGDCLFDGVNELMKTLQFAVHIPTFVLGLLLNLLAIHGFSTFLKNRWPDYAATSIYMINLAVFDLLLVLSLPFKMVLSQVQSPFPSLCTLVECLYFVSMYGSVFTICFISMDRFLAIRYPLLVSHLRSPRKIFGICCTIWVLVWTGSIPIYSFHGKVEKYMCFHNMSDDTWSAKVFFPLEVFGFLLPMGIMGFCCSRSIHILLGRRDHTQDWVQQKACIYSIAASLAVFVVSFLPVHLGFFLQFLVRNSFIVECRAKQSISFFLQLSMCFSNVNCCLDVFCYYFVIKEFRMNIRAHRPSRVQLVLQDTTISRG

[17] = target: T6, Streptokinase A (Streptococcus pyogenes serotype M1, UniProt P10520); experiment: S. pyogenes streptokinase expression inhibitors, potency, dose response, plasminogen activation absorbance, OD405 (AID 1914); type: functional, Streptococcus pyogenes M1 GAS;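 further: secreted streptokinase activity via plasminogen activation per viability signal from cell pellet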
T6 sequence (P10520 whole entry): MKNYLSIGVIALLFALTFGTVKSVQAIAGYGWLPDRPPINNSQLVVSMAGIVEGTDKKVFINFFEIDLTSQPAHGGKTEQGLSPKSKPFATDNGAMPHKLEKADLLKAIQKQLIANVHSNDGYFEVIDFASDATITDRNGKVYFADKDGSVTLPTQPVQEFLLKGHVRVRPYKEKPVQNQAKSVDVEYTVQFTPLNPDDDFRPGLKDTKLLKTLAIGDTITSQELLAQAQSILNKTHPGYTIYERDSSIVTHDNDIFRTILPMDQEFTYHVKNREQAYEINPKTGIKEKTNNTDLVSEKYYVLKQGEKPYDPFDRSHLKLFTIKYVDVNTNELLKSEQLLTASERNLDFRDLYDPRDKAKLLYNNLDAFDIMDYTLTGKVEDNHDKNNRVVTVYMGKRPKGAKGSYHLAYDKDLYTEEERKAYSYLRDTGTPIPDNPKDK

[18] = test system: Streptococcus sp. 'group A'; experiment: growth inhibition of control SK(-) GAS strain, dose response, counter-screen for streptokinase expression inhibitor project, luminescence, kanamycin, BacTiterGlo, confirmation (AID 1900); type: functional, organism-based
[19] = LGR2 antagonists, dose response, cell-based, HEK293, CRE-luciferase reporter, cherry pick, set 2 (AID 743343); type: functional;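 further: transfected cells were stimulated with diluted bursicon conditioned medium after compound addition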
[20] = MC4R antagonists, dose response, counter-screen for LGR2 antagonist project, cell-based, plate reader, cherry pick (AID 743444); type: functional;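 further: transfected HEK 293 cells stimulated with alpha-MSH peptide; potency of inhibitors of the alpha-MSH evoked signal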
[21] = test system: Vero; experiment: Vero cell cytotoxicity, cytotoxicity control for flavivirus capping enzyme inhibitors (AID 588742); type: functional; settings: Chlorocebus sabaeus

For O=C(O)c1ccc(OC2CSC2)cc1, the IC50 [1] was 30 µM (active), the IC50 [2] was 18.7 µM (active) and the IC50 [3] was > 99 µM (inactive). The IC50 [4] was > 99 µM (inactive), the IC50 [5] was 94.9 µM (active) and the IC50 [6] was > 100 µM (inactive). The IC50 [7] was 8.43 µM (active) and the IC50 [8] was 13 µM (active).
For Clc1ccc2oc(-c3ccccc3)nc2c1, the IC50 [5] was 14.2 µM (active), the IC50 [6] was 7.93 µM (active) and the IC50 [7] was > 100 µM (inactive). The IC50 [8] was 22 µM (active).
With CCNc1nc(N)nc(-c2cc(Cl)ccc2O)n1 the AC50 [9] was 7.06 µM (active), the EC50 [10] was > 180 µM (inactive) and the EC50 [11] was 40.2 µM (active). The IC50 [5] was 18.9 µM (active), the EC50 [12] was 20.1 µM (active) and the IC50 [6] was 3.99 µM (active). For the same compound, the IC50 [7] was 13.7 µM (active), the EC50 [13] was 0.53 µM (active) and the IC50 [8] was 12 µM (active).
With COc1ccc(NC2=NCC(Cc3ccc(Br)cc3)S2)cc1 (stereo not drawn) the AC50 [14] was 183 µM (active), the EC50 [15] was > 150 µM (not active) and the IC50 [16] was 1.31 µM (active). The EC50 [17] was > 150 µM (not active) and the EC50 [18] was 9.96 µM (active).
With Cc1cnc(NC(=O)c2ccc(OCC3CCCO3)cc2)s1 (stereo not drawn) the AC50 [19] was 4.84 µM (active), the AC50 [14] was 1.93 µM (active) and the AC50 [20] was 5.51 µM (active).
For CCOC(=O)c1cn2nc(N3CCCCC3)ccc2n1, the AC50 [19] was 2.62 µM (active), the AC50 [14] was 2.8 µM (active) and the AC50 [20] was 5.1 µM (active).
For O=C1C(=Cc2ccccc2[N+](=O)[O-])Cc2ccccc21, the CC50 [21] was 20.9 µM (active).
